PMC12210654, “Palazestrant, a novel oral Complete Estrogen Receptor Antagonist (CERAN) and Selective Estrogen Receptor Degrader (SERD), in patients with ER+/HER2− advanced or metastatic breast cancer: phase 1/2 study results” (Breast Cancer Research : BCR, 2025)
Where “and” joins values, the source holds several entries; their conditions need not be identical. Identical values can stand only once. Entries after “also recorded” stand apart in the source; their conditions may differ.

Assays:
[1] = Plasma pharmacokinetics, single and multiple dose, noncompartmental; assay type: in vivo, human; conditions: for AUC(0-t): steady-state geometric mean AUC0–24
Description: (§1) All DLT analyses (phase 1a) were performed in patients enrolled in the study during cycle 1 and who either received 75% of the planned palazestrant doses or experienced a DLT during cycle 1. All PK analyses were performed in patients who received at least 1 dose of palazestrant and had adequate postbaseline PK samples for characterization of PK parameters. All safety analyses were performed and PFS assessed in patients who received at least 1 dose of palazestrant. Clinical response (CR or PR) was assessed in patients who received at least 1 cycle of palazestrant, had measurable disease at baseline, and had at least 1 postbaseline tumor assessment. CBR was assessed in patients who received at least 1 cycle of palazestrant, had at least 1 postbaseline tumor assessment, and started their first dose at least 24 weeks before data cutoff. Patients who discontinued study treatment without radiographic progression within 24 weeks from the first dose were not included in the CBR analysis. PK parameters were estimated using conventional noncompartmental methods. For CBR, estimates were accompanied by 2-sided 95% confidence intervals (95% CIs). For PFS, Kaplan–Meier analyses were used to determine medians, event-free rates, and 95% CIs. For all other outcomes, categorical data were analyzed using frequencies and percentages, and continuous data were analyzed using means (standard deviation) or medians (range), as appropriate.
Fig. 3 Steady-State Plasma Concentration–Time Profiles for Palazestrant (30 to 300 mg QD; Phase 1a/1b/2 data). Palazestrant was administered once daily at the indicated dose. Plasma samples were collected on cycle 2, day 1, at the indicated timepoints following administration to determine plasma drug concentration. Data presented are arithmetic mean and standard deviation; the heavy dashed black line represents the target (efficacious) exposure based on estradiol-supplemented preclinical models (Cmin: 226 ng/mL). Cmin, minimum plasma concentration; QD, once daily

[2] = system: ER+/HER2− advanced or metastatic breast cancer; test: Antitumor activity: RECIST v1.1 response, CBR, PFS, duration of treatment; assay type: in vivo, human
Description: Key efficacy end points included assessment of clinical response according to RECIST v1.1; the clinical benefit rate (CBR), defined as the proportion of patients who achieved a complete response (CR), achieved a partial response (PR), or had stable disease (SD) for at least 24 weeks; and progression-free survival (PFS), defined as the time from the date of the first dose to disease progression or death. Biomarker assessments included changes from baseline in circulating tumor DNA (e.g., ESR1 variants) and tumor tissue biomarkers (ERα and Ki67).
as §1

[3] = system: ESR1; test: ESR1 mutations in cell-free DNA (SafeSEQ Breast Cancer Panel); assay type: in vivo, human
Description: All immunohistochemistry analyses from tumor samples were performed at ICON Central Laboratories (Farmingdale, NY, USA) using the Ventana® BenchMark ULTRA™ automated staining instrument (Oro Valley, AZ, USA). Positive- and negative-control tissue and negative reagent controls were run for each marker, as well as low-ER controls for each run. Estrogen receptor levels were estimated as the number of positive tumor nuclei divided by the total number of tumor nuclei, expressed as a percentage for each receptor type. Evaluation of Ki67 was performed in accordance with Ki67 Working Group recommendations: 1) only nuclear staining was assessed as positive; 2) in cases of tumor heterogeneity (hot spots), 2 counts were performed and the average was reported; and 3) lymphocyte-rich areas were avoided when possible. Presence of activating ESR1 mutations (amino acid regions 370–381, 460–473, and 529–538) and their mutant allele fractions (MAFs) were determined in cell-free DNA (cfDNA), collected at baseline and at 8 weeks on treatment using the SafeSEQ Breast Cancer Panel (Sysmex Inostics, Baltimore, MD, USA).
In patients who underwent biomarker testing, samples collected on cycle 3 day 1 of treatment across all dose levels were compared to baseline samples to assess changes during treatment. […] Additionally, the number of endocrine resistance-associated ESR1-variant mutations (Y537S, Y537 N/C, L536H/P/R, and D538G) were reduced from 106 mutations detected at baseline (in 64 patients with detectable mutations at baseline) to 37 mutations (in 21 patients) after 2 treatment cycles of palazestrant treatment (Supplemental Fig. 2 C).
14 Supplemental Figure 2. Biomarker analyses following treatment with palazestrant.
15 Quantitative analyses were performed on patient tissue and blood samples collected at baseline and
16 cycle 3 day 1 of palazestrant treatment.
17 decreased after treatment with palazestrant compared (P=.041). B) ER Allred scores were decreased
18 after treatment with palazestrant (P=.13). C) Sankey diagram showing the number of mutations detected
19 in cfDNA for each ESR1 variant before and after treatment with palazestrant. N = number of patients in
20 the analysis; n= number of mutations.
21 49 (77%) had at least one mutation become “Not detected” at C3D1.
22 ESR1 mutation detected at C1D1, 43 (67%) had all their detected mutation(s) become “Not detected” at […]

[4] = system: ER; set-up: method as in ref 22 = [22]; 22. Hamilton E, Meisel J, Alemany C, Borges V, Lin NU, Wesolowski R, et al. Preliminary phase 1/2 results from OP-1250-001, a study of OP-1250, an oral CERAN/SERD, in patients with advanced and/or met; conditions: based on estradiol-supplemented preclinical models; cited from earlier work
[5] = system: ESR1 wild-type and mutated human breast cancers; conditions: cited from earlier work
[6] = system: ER; set-up: method as in PMID 38102750; conditions: cited from earlier work
[7] = 60 mg/day, measurable disease (n = 26)
[8] = 120 mg/day, 66 patients with measurable disease
[9] = 120 mg/day, all patients (n = 86)
[10] = 120 mg/day, patients with ESR1 mutation at baseline (n = 36)
[11] = of 64 patients with an ESR1 mutation detected at C1D1

CCCN1CC(Oc2ccc([C@@H]3c4[nH]c5ccccc5c4C[C@@H](C)N3CC(C)(C)F)cc2)C1 [palazestrant, Palazestrant]
steady-state plasma concentrations versus predicted efficacy threshold (226 ng/mL) ([1]; doses of ≥ 60 mg/day (60 and 120 mg/day)): reached the predicted efficacy threshold; also recorded: above the predicted efficacy threshold | AUC(0-t) ([1]; human, in vivo, 60 mg): 4030 ng·h/mL | AUC(0-t) ([1]; human, in vivo, 120 mg): 9210 ng·h/mL | half-life ([1]; human, in vivo, 120 mg, terminal half-life): 192 h | bioavailability ([1]; human, in vivo, po): readily bioavailable | distribution ([1]; in vivo): extensive tissue distribution | dose proportionality of exposure ([1]; in vivo): dose-proportional exposure | elimination ([1]; in vivo): biphasic elimination | best response observed in dose cohorts ([2]; 60 mg/day and 120 mg/day dose cohorts): Confirmed partial responses; also recorded: confirmed PR | clinical benefit rate (CBR) ([2]; 60 mg/day, 13 patients with cancers with ESR1 mutations): 23.1% | clinical benefit rate (CBR) ([2]; 60 mg/day, all evaluable patients (n = 26)): 19% and 19.2% | confirmed PRs [2, 7]: 7.7% | total PRs [2, 7]: 11.5% | unconfirmed PR [2, 7]: 3.8% | patients remaining on treatment for ≥ 1 year ([2]; 120 mg/day (n = 86)): 7.0% | patients with a > 30% reduction in tumor size ([2]; 120 mg/day, 8/64): 12.5% | patients with a reduction in tumor size (percentage change less than zero) ([2]; 120 mg/day, 25/64): 39.1% | patients remaining on treatment for ≥ 6 months ([2]; 120 mg/day, 32/86): 37.2% | confirmed PRs [2, 8]: 4.5% | confirmed PRs including one cPR after the data cutoff date [2, 8]: 6.0% | total PRs [2, 8]: 7.6% | unconfirmed PRs [2, 8]: 3.0% | clinical benefit rate (CBR) ([2]; 120 mg/day, all evaluable patients (n = 70)): 46% and 45.7% | 6-month PFS rate [2, 9]: 39% | median progression-free survival (95% CI) [2, 9]: 4.8 months | CBR in patients who had a reduction in ESR1 mutations ([2]; 120 mg/day, ctDNA available, 8/11): 73% | CBR in patients who did not have a reduction in ESR1 mutations ([2]; 120 mg/day, ctDNA available, 8/32): 25% | 6-month PFS rate [2, 10]: 47% | median progression-free survival (95% CI) [2, 10]: 5.6 months | clinical benefit rate (CBR) ([2]; 120 mg/day, patients with cancers with ESR1 mutations (n = 29)): 58.6% | patients with detectable ESR1-variant mutations on treatment ([3]; after 2 treatment cycles, 64 patients at baseline): 21 patients | number of endocrine resistance-associated ESR1-variant mutations detected on treatment ([3]; after 2 treatment cycles, 106 mutations at baseline): 37 mutations | patients with all detected ESR1 mutation(s) become Not detected at C3D1 [3, 11]: 67% | patients with at least one ESR1 mutation become Not detected at C3D1 [3, 11]: 77% | predicted efficacy threshold, target (efficacious) exposure, Cmin [4]: 226 ng/mL | tumor shrinkage compared with fulvestrant and tamoxifen ([5]; preclinical xenograft models, ESR1 wild-type and mutated): greater tumor shrinkage | preclinical antitumor activity relative to fulvestrant and elacestrant ([5]; regardless of ESR1 mutation status): superior | potency in vitro relative to imlunestrant [6]: greater potency in vitro
